Source: US8772511B2, “Azabicyclic carbamates and their use as alpha-7 nicotinic acetylcholine receptor agonists” (Bayer Intellectual Property GmbH, priority 2002, dated 2014)
Structures can show the parent of a compound that is named as a salt. Where two headings read alike, the source gives them in different places.

Assays:
[1] = target: α7 nAChR (Rattus norvegicus (Rat), UniProt Q05941); experiment: Affinity for α7 nAChR by inhibition of [3H]-methyllycaconitine binding to rat brain membranes
Experimental: 1. Determination of the Affinity of Test Substances for α7 nAChR by Inhibition of [^3H]-Methyllycaconitine Binding to Rat Brain Membranes
The [^3H]-methyllycaconitine binding assay is a modification of the method described by Davies et al. in Neuropharmacol. 1999, 38, 679-690.
Rat brain tissue (hippocampus or whole brain) is homogenized in aqueous homogenization buffer (10% w/v, 0.32 M sucrose, 1 mM EDTA, 0.1 mM phenylmethylsulfonyl fluoride (PMSF), 0.01% (w/v) NaN3, pH 7.4, 4° C.) at 600 rpm in a glass homogenizer. The homogenate is centrifuged (1000×g, 4° C., 10 min) and the supernatant is removed. The pellet is resuspended (20% w/v) and the suspension is centrifuged (1000×g, 4° C., 10 min). The two supernatants are combined and centrifuged (15 000×g, 4° C., 30 min). The pellet obtained in this way is referred to as the P2 fraction.
The P2 pellet is suspended in binding buffer (50 mM Tris-HCl, 1 mM MgCl2, 120 mM NaCl, 5 mM KCl, 2 mM CaCl2, pH 7.4), and the suspension is centrifuged (15 000×g, 4° C., 30 min), twice.
The residue is resuspended in binding buffer to a concentration of […] and incubated in a volume of 250 μl (amount of membrane protein 0.4 mg) in the presence of 2 nM [3H]-methyllyeaconitine, 0.1% (w/v) BSA (bovine serum albumin) and various concentrations of the test substance at 21° C. for 60 min.
Incubation is then carried out in the presence of 1 μM α-bungarotoxin or 100 μM nicotine or 10 μM MLA (methyllycaconitine). The incubation is stopped by adding 4 ml of PBS (20 mM Na2HPO4, 5 mM KH2PO4, 150 mM NaCl, pH 7.4, 4° C.) and filtering through type A/E glass fiber filters (Gelman Sciences) which have previously been placed in 0.3% (v/v) polyethyleneimine (PEI) for 3 h. The filters are washed twice with 4 ml of PBS (4° C.), and the bound radioactivity is determined by scintillation measurement. All the assays are carried out in triplicate. The dissociation constant Ki of the test substance was determined from the IC50 of the compounds (concentration of the test substance at which 50% of the ligand bound to the receptor is displaced), the dissociation constant KD and the concentration L of [^3H]-methyllycaconitine using the equation Ki=IC50/(1+L/KD).

[2] = target: recombinant human 5-HT3 receptor (Homo sapiens (Human), UniProt P46098); experiment: Affinity for 5-HT3 receptors through inhibition of [3H]GR65630 binding
Experimental: 2. Determination of the Affinity of Test Substances for 5-HT3 Receptors Through Inhibition of [^3H]GR65630 Binding
Membranes from HEK293 cells which express recombinant human 5-HT3 receptor (RB-HS3, Receptor Biology, Inc., MD, USA) are diluted in accordance with the manufacturer's instructions in incubation buffer (50 mM Iris base, pH 7.4, 5 mM MgCl2, 0.5 mM EDTA, 0.1% (w/v) ascorbic acid, 10 μM pargyline and incubated in a volume of 200 μl (amount of membrane protein 3 μg) in the presence of 0.5 nM of the selective 5-HT3 receptor radio ligand [^3H]-GR65630 (NET 1011, Du Pont) and various concentrations of the test substance at 21° C. for 60 min. The nonspecific binding is determined by incubation in the presence of 100 μM 5-HT (5-hydroxytryptamine). The incubation is stopped by filtering through type A/E glass fiber filters (Gelman Sciences) or GF/B filters (Whatman) which have previously been placed in 0.3% (v/v) polyethyleneimine (PEI) for at least 1 h. The filters are washed three times with 3 ml of washing buffer (50 mM Tris-HCl, pH 7.4; 4° C.), and the bound radioactivity is determined by scintillation measurement. All the assays are carried out in triplicate. The dissociation constant Ki of the test substance is determined from the IC50 of the compounds (concentration of the test substance at which 50% of the ligand bound to the receptor is displaced), the dissociation constant KD and the concentration L of [^3H]GR65630 (Ki=IC50/(1+L/KD)).

[3] = [3H]-methyllycaconitine displacement, rat brain membranes, read-out: Ki
[4] = [3H]GR65630 displacement, membranes from HEK293 cells expressing human 5-HT3 receptor, read-out: Ki

Sequence of recombinant human 5-HT3 receptor (P46098 24-478): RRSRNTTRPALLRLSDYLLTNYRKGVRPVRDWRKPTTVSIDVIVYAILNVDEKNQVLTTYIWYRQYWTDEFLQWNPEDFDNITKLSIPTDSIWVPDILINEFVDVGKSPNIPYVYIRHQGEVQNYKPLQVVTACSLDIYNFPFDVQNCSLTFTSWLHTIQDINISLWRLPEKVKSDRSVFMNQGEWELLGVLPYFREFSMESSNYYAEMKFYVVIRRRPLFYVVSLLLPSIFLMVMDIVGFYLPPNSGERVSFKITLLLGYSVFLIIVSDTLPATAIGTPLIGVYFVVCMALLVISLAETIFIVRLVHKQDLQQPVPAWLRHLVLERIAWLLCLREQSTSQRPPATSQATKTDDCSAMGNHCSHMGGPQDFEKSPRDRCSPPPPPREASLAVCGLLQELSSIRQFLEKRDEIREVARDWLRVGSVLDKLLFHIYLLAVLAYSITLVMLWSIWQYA
Sequence of α7 nAChR (Q05941 23-502 limits assumed): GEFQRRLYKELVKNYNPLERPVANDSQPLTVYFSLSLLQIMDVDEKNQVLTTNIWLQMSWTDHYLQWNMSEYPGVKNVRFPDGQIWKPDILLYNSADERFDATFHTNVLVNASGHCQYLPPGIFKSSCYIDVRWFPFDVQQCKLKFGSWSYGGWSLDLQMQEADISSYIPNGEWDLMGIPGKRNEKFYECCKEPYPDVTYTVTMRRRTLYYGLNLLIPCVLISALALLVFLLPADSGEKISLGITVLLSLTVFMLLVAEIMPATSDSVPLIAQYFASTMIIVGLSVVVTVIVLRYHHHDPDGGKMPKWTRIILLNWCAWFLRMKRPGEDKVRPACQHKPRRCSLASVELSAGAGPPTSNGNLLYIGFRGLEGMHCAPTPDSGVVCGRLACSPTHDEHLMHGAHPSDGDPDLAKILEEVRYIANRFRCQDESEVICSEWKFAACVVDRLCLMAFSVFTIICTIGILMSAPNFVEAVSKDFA

Structure (SMILES)	Ki [1, 3] [nM]	Ki [2] [nM]	Ki [1] [nM]	Ki [2, 4] [nM]
COc1ccc(NC(=O)Nc2ccc3cc(C(=O)N[C@H]4CN5CCC4CC5)sc3c2)cc1 [Example 4, N-[(3R)-1-Azabicyclo[2.2.2]oct-3-yl]-6-({[(4-methoxyphenyl)amino]carbonyl}-amino)-1-benzothiophene-2-carboxamide hydrochloride]	2.1			
O=C(NCCc1ccccc1)Nc1ccc2cc(C(=O)N[C@H]3CN4CCC3CC4)sc2c1 [Example 5, N-[(3R)-1-Azabicyclo[2.2.2]oct-3-yl]-6-({[(2-phenylethyl)amino]carbonyl}amino)-1-benzothiophene-2-carboxamide hydrochloride]	22	12000		
N#Cc1cccc(NC(=O)Nc2ccc3cc(C(=O)N[C@H]4CN5CCC4CC5)sc3c2)c1 [Example 6, N-[(3R)-1-Azabicyclo[2.2.2]oct-3-yl]-6-({[(3-cyanophenyl)amino]carbonyl}amino)-1-benzothiophene-2-carboxamide hydrochloride]			7.9	1700
O=C(Nc1ccc2cc(C(=O)N[C@H]3CN4CCC3CC4)sc2c1)Nc1c(F)cccc1F [Example 11, N-[(3R)-1-Azabicyclo[2.2.2]oct-3-yl]-6-({[(2,6-difluorophenyl)amino]carbonyl}-amino)-1-benzothiophene-2-carboxamide hydrochloride]			0.4	5500
COc1cc(NC(=O)Nc2ccc3cc(C(=O)N[C@H]4CN5CCC4CC5)sc3c2)cc(OC)c1OC [Example 14, N-[(3R)-1-Azabicyclo[2.2.2]oct-3-yl]-6-({[(3,4,5-trimethoxyphenyl)amino]-carbonyl}amino)-1-benzothiophene-2-carboxamide hydrochloride]		6900		
COc1cccc(NC(=O)Nc2ccc3cc(C(=O)N[C@H]4CN5CCC4CC5)sc3c2)c1 [Example 16, N-[(3R)-1-Azabicyclo[2.2.2]oct-3-yl]-6-[({[3-methoxyphenyl]amino}carbonyl)-amino]-1-benzothiophene-2-carboxamide hydrochloride]			4.3	2100
O=C(Nc1ccccc1)Nc1cccc2cc(C(=O)N[C@H]3CN4CCC3CC4)sc12 [Example 21, 7-[(Anilinocarbonyl)amino]-N-[(3R)-1-azabicyclo[2.2.2]oct-3-yl]-1-benzothiophene-2-carboxamide hydrochloride]			15	1600
COc1ccc(NC(=O)Nc2ccc3cc(C(=O)N[C@H]4CN5CCC4CC5)oc3c2)cc1 [Example 22, N-[(3R)-1-Azabicyclo[2.2.2]oct-3-yl]-6-({[(4-methoxyphenyl)amino]carbonyl}-amino)-1-benzofuran-2-carboxamide hydrochloride]	< 1			
